Test results reported in patent US7670806B2, “ADP-ribosyl acceptor hydrolase 3 (ARH3) polypeptides and methods of use” (The United States of America as represented by the …, priority 2005, dated 2010).

How the values were obtained:
[1] = target: T1, ARH3 (Mus musculus, UniProt Q8CG72); assay: Inhibition of ARH3-catalyzed hydrolysis of O-acetyl-ADP-ribose; format: biochemical
T1 construct: The entire coding regions were ligated into pGEX-2T expression vector; GST (N); made in house; host or cells: E. coli BL21 Rosetta
T1 sequence (Q8CG72 1-370): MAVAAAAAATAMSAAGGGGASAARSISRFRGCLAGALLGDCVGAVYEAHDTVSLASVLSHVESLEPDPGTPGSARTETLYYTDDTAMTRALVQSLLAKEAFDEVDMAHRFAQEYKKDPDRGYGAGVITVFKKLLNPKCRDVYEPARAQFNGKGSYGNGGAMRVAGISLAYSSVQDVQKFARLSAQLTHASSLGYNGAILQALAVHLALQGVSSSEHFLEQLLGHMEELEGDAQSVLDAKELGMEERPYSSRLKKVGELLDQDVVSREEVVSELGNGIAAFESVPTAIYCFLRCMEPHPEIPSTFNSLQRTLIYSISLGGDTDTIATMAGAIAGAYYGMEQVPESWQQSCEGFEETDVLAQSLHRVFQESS
Method: FIG. 15A is a graph of the results from an assay with 2 pmol of ARH3 and the indicated amount of ADP-ribose (●) or β-NAD (∘) in 200 μl for 2 h at 30° C., as described in FIG. 11B. FIG. 15B is a graph of the inhibition of ARH3 hydrolysis by ADP-ribose data schematized for Lineweaver-Burk plot.
Mouse ARH3 (2 pmol) and 2.5 μM O-acetyl-[^14C]ADP-ribose (5,000 cpm) in 200 μl of buffer containing 50 mM potassium phosphate (pH 7.0), 10 mM MgCl2 and 5 mM DTT were incubated for 2 h at 30° C., before separation of substrate and products using RP-HPLC as described below.
Hydrolysis of O-acetyl-[^14C]ADP-ribose catalyzed by ARH3. Assays containing the indicated concentration of O-acetyl-[^14C]-ADP-ribose (0.1 to 2 nmol, 1,000 to 20,000 cpm) and 1.5 pmol of ARH3 in 200 μl of buffer (50 mM KPO4 (pH 7.0), 10 mM MgCl2, 5 mM DTT) were incubated at 30° C. for 20 min. Substrate and products were separated using RP-HPLC. Amounts of product were corrected for ADP-ribose produced in the absence of ARH3 before calculation of hydrolysis rates.
ADP-ribose inhibited ARH3-catalyzed hydrolysis of 2.5 μM O-acetyl-ADP-ribose, ˜50% at a concentration of ca. 10 μM.

[2] = Poly(ADP-ribose) hydrolysis (autoradiography, high resolution PAGE, HPLC); format: biochemical; conditions: [32P]poly(ADP-ribose) or poly(ADP-ribose)PARP; 37° C.; autoradiography / PAGE / HPLC
Method: Poly(ADP-ribose) hydrolysis by autoradiography. [^32P]poly(ADP-ribose)PARP (500 ng of PARP with poly(ADP-ribose) was incubated (37° C., 2 h) with 2 μM ARH in 25 μl of 50 mM potassium phosphate buffer, pH 7.5, with or without 10 mM MgCl2 and/or 5 mM DTT. Reactions were stopped by adding 6 μl of 5× Laemmli buffer. Samples (20 μl) of proteins were separated by SDS-PAGE in 4-20% gels and transferred to nitrocellulose membranes that were exposed to X-ray film (Kodak) for 10 h.
Hydrolysis of poly(ADP-ribose) by PARG and ARH3. Purified [^32P] poly(ADP-ribose) (5.5×10^5 cpm, ˜300 nM ADP-ribose) was incubated for the indicated time at 37° C. in 25 μl of 50 mM potassium phosphate, pH 7.5, containing 10 mM MgCl2 and 5 mM DTT with enzyme or other additions as indicated and terminated by addition of 25 μl of 2× electrophoresis buffer (Invitrogen). [^32P]AMP was generated by incubation (37° C., 3 h) of 10 μM [^32P] NAD (10 μCi/reaction) with pyrophosphatase (40 units/mg from SIGMA, 1 mg/ml) in 25 μl of 50 mM KPO4, pH 7.5, and 10 mM MgCl2. [^32P] […]
Poly(ADP-ribose)PARP was used as substrate to assay potential poly(ADP-ribose) hydrolase activities of recombinant ARH1, 2 or 3. […] Fractions (1 ml) were collected for liquid scintillation counting to quantify [^14C]ADP-ribose, which was eluted in fractions from 34 min to 43 min. […]

[3] = Rafty et al. (2002), cited from earlier work

Nc1ncnc2c1ncn2[C@@H]1O[C@H](COP(=O)(O)OP(=O)(O)OC[C@H]2OC(O)[C@H](O)[C@@H]2O)[C@@H](O)[C@H]1O (some centres unmarked) [ADP-ribose]
Inhibition of ARH3-catalyzed hydrolysis of O-acetyl-ADP-ribose ([1]; 2.5 μM O-acetyl-ADP-ribose, inhibitor at ca. 10 μM, 2 pmol ARH3, 2 h at 30° C.): ~50% | Ki ([1]; Lineweaver-Burk plot, substrate O-acetyl-ADP-ribose): 8.6 µM

ARH1: 39-kDa ADP-ribose-(arginine) protein hydrolase, recombinant mouse or human
Poly(ADP-ribose) hydrolysis (in words) [2]: did not

murine Nudix: murine Nudix family ADP-ribose pyrophosphatase (Rafty et al. 2002)
kcat, O-acetyl-ADP-ribose [3]: 0.78 ± 0.18 s⁻¹ | Km ([3]; read-out: Km for O-acetyl-ADP-ribose): 45 ± 0.9 µM
